Legend:
Assay type in all cases: in vitro ADME
[1] = Liver microsomal stability in human; conditions: human liver microsomes, 0.5 mg protein/mL, 1 μM compound, 37° C.
Experimental: (§1) Experimental Example 2: Evaluation on Liver Microsomal Stability of the Compound Disclosed Herein in Human/Canine
(§2) An appropriate amount of the compound was precisely weighed and dissolved in DMSO to prepare a 5.0 mM stock solution. 5.0 mM stock solution was diluted to 1.0 mM with DMSO, and then diluted with water to 10 μM, serving as a compound working solution for later use (DMSO content in the reaction system: 0.1% v/v).
(§3) • (1) The liver microsomes (20 mg protein/mL) were taken from a −80° C. refrigerator, pre-incubated on a 37° C. water bath thermostatic oscillator for 3 min, and thawed for use. • (2) A mixed incubation system solution (without compounds or β-NADPH) was prepared according to the proportion of “composition of the incubation system” described above and pre-incubated on a 37° C. water bath thermostatic oscillator for 2 min. • (3) Control group (without β-NADPH): 30 μL of water and 30 μL of compound working solution (10 μM) were added to 240 μL of the mixed incubation system solution in step (2), and the mixture was vortexed for 30 s and mixed. The total volume of the mixture was 300 μL. The sample was duplicated. The reaction solution was placed on a 37° C. water bath thermostatic oscillator for incubation, and timing was started. Samples were collected at 0 min and 60 min. • (4) Sample group: 70 μL of β-NADPH solution (10 mM) and 70 μL of compound working solution (10 μM) were added to 560 μL of the mixed incubation system solution in step (2), and the total volume of the mixture was 700 μL. The mixture was vortexed for 30 s and mixed. The sample was duplicated. The reaction solution was placed on a 37° C. water bath thermostatic oscillator for incubation, and timing was started. Samples were collected at 0 min, 5 min, 10 min, 20 min, 30 min and 60 min after timing. • (5) The reaction solution was vortexed for 3 min, and centrifuged at 12,000 rpm for 5 min. • (6) 50 μL of the supernatant was added to 150 μL of water, and the resulting solution was vortexed and mixed before LC/MS/MS analysis.
(§4) The half-life (t1/2) and clearance (Cl) were calculated using the following first-order kinetic formula:
(§5) Vd=1/protein content in liver microsomes
(§6) Note: k denotes the slope of the logarithm of the remaining amount of a compound vs. time, Vd denotes apparent volume of distribution, C0 denotes drug concentration at 0 h, Ct denotes drug concentration at time t, t denotes time, e denotes natural number, and Clint denotes intrinsic clearance.

[2] = Liver microsomal stability in rat; conditions: rat liver microsomes, 0.5 mg protein/mL, 1 μM compound, 37° C.
Experimental: (§7) Experimental Example 4:Evaluation on Liver Microsomal Stability of the Compound Disclosed Herein in Mouse/Rat
(§8) Objective: To evaluate the liver microsomal stability of the compound disclosed herein in mouse/rat
as §2
as §2, with “methanol” for “DMSO”, “methanol,” for “DMSO,”, “10% methanol-water (v/v) solution” for “water”, “(methanol” for “(DMSO”, “1.1%” for “0.1%”
(§9) • (1) The liver microsomes (20 mg protein/mL) were taken from a −80° C. refrigerator, pre-incubated on a 37° C. water bath thermostatic oscillator for 3 min, and thawed for use. • (2) A mixed incubation system solution (without compounds or […]) was prepared according to the proportion of “composition of the incubation system” described above and pre-incubated on a 37° C. water bath thermostatic oscillator for 2 min. • (3) Control group (without β-NADPH): 30 μL of water and 30 μL of compound working solution (10 μM) were added to 240 μL of the mixed incubation system solution in step (2), and the mixture was vortexed for 30 s and mixed. The total volume of the mixture was 300 μL. The sample was duplicated. The reaction solution was placed on a 37° C. water bath thermostatic oscillator for incubation, and timing was started. Samples were collected at 0 min and 60 min. • (4) Sample group: 70 μL of β-NADPH solution (10 mM) and 70 μL of compound working solution (10 μM) were added to 560 μL of the mixed incubation system solution in step (2), and the total volume of the mixture was 700 μL. The mixture was vortexed for 30 s and mixed. The sample was duplicated. The reaction solution was placed on a 37° C. water bath thermostatic oscillator for incubation, and timing was started. Samples were collected at 0 min, 5 min, 10 min, 20 min, 30 min and 60 min after timing. • (5) The reaction solution was vortexed for 3 min, and centrifuged at 12,000 rpm for 5 min. • (6) 50 μL of the supernatant was added to 150 μL of water, and the resulting solution was vortexed and mixed before LC/MS/MS analysis.
as §4, §5, §6

[3] = Liver microsomal stability in mouse; conditions: mouse liver microsomes, 0.5 mg protein/mL, 1 μM compound, 37° C.
Experimental: as §7, §8, §2
as §2, with “methanol” for “DMSO”, “methanol,” for “DMSO,”, “10% methanol-water (v/v) solution” for “water”, “(methanol” for “(DMSO”, “1.1%” for “0.1%”
as §9, §4, §5, §6

[4] = Liver microsomal stability in canine; conditions: dog; canine liver microsomes, 0.5 mg protein/mL, 1 μM compound, 37° C.
Experimental: as §1, §2, §3, §4, §5, §6

Structure (SMILES)	half-life at 1 μM [2] [h]	microsomal CLint at 1 μM [2] [µL/min/mg]	half-life at 1 μM [3] [h]	microsomal CLint at 1 μM [3] [µL/min/mg]	also measured
CCn1c(-c2nc3cc(C(=O)N4CCC[C@@H](N)C4)cc(OC)c3n2C)cc2ccsc21 [Compound 3, (R)-(3-aminopiperidin-1-yl)(2-(6-ethyl-6H-thieno[2,3-b]pyrrol-5-yl)-7-methoxy-1-methyl-1H-benzo[d]imidazol-5-yl)methanone]	3.98	5.8	–	–	half-life at 1 μM [1]: 4.62 h; microsomal CLint at 1 μM [1]: 5 µL/min/mg
COc1cc(C(=O)N2CCC[C@@H](N)C2)cc2nc(-c3cc4ccsc4n3CC3CC3)n(C)c12 [Compound 18, (R)-(3-aminopiperidin-1-yl)(2-(6-(cyclopropylmethyl)-6H-thieno[2,3-b]pyrrol-5-yl)-7-methoxy-1-methyl-1H-benzo[d]imidazol-5-yl)methanone]	–	–	4.13	5.6	half-life at 1 μM [1]: 3.5 h; microsomal CLint at 1 μM [1]: 6.6 µL/min/mg
COc1cc(C(=O)N2CCC[C@@H](N)C2)cc2nc(-c3cc4ccsc4n3CC(C)C)n(C)c12 [Compound 20, (R)-(3-aminopiperidin-1-yl)(2-(6-isobutyl-6H-thieno[2,3-b]pyrrol-5-yl)-7-methoxy-1-methyl-1H-benzo[d]imidazol-5-yl)methanone]	5.25	4.4	11.6	2	–
CCn1c(-c2nc3cc(C(=O)N4CCC[C@@H](N)C4)cc(OC)c3n2C)cc2cc(C)sc21 [Compound 9, (R)-(3-aminopiperidin-1-yl)(2-(6-ethyl-2-methyl-6H-thieno[2,3-b]pyrrol-5-yl)-7-methoxy-1-methyl-1H-benzo[d]imidazol-5-yl)methanone]	–	–	–	–	half-life at 1 μM [4]: 23.1 h; microsomal CLint at 1 μM [4]: 1 µL/min/mg; t1/2 [2]: →∞

The next lines start with results.

half-life at 1 μM [2] [h]	microsomal CLint at 1 μM [2] [µL/min/mg]	half-life at 1 μM [3] [h]	microsomal CLint at 1 μM [3] [µL/min/mg]	Structure (SMILES)	also measured
–	–	2.68	8.6	COc1cc(C(=O)N2CCC[C@@H](N)C2)cc2nc(-c3cc4ccsc4n3CC3CCC3)n(C)c12 [Compound 22, (R)-(3-aminopiperidin-1-yl)(2-(6-(cyclobutylmethyl)-6H-thieno[2,3-b]pyrrol-5-yl)-7-methoxy-1-methyl-1H-benzo[d]imidazol-5-yl)methanone]	–
–	–	3.98	5.8	COc1cc(C(=O)N2CCC[C@@H](N)C2)cc2nc(-c3cc4cc(C)sc4n3CC3CC3)n(C)c12 [Compound 23, (R)-(3-aminopiperidin-1-yl)(2-(6-(cyclopropylmethyl)-2-methyl-6H-thieno[2,3-b]pyrrol-5-yl)-7-methoxy-1-methyl-1H-benzo[d]imidazol-5-yl)methanone]	–
2.97	7.8	–	–	COc1cc(C(=O)N2CCC[C@@H](N)C2)cc2nc(-c3cc4ccsc4n3CC(F)(F)F)n(C)c12 [Compound 21, (R)-(3-aminopiperidin-1-yl)(7-methoxy-1-methyl-2-(6-(2,2,2-trifluoroethyl)-6H-thieno[2,3-b]pyrrol-5-yl)-1H-benzo[d]imidazol-5-yl)methanone]	–
